Source: patent US5300491A, “Treatment of protozoal infection” (priority 1992, dated 1994)
Like-named read-outs stand apart in the source and are kept apart here. Bridge positions count the residues as written; N and C are the ends. Square brackets hold non-standard residues; d marks the D form. Peptide text beside a SMILES is read from it. * marks the point of attachment. Ileψ(thiazoline)Cys = CC[C@H](C)[C@H](N)C1=N[C@H](C(=O)*)CS1; dOrn = NCCC[C@@H](N)C(=O)O

Test system: Entamoeba histolytica
Type: cell-based
Excerpt: E. histolytica isolates representing three distinct zymodemes (I, II or XIV) were derived from a range of geographical locations. The patients from whom the isolates were obtained were either pathogenic (i.e. presented dysentery), or non-pathogenic (i.e., presented a non-dysenteric stage of infection characterized by passing of cysts or trophozoites). The following table identifies the E. histolytica isolates in accordance with the above criteria:
Each isolate was a xenic culture, i.e., it contained, in addition to the E. histolytica amoeba, the normally occurring patient faecal microflora. The cultures were maintained according to the method of Robinson, Trans. Roy. Soc. Trop. Med. Hyg. 62, 285-94, (1968). Bacitracin (70 I.U./mg) and its zinc salt (65 I.U./mg) were obtained from Apothekernes Laboratorium A.S (Oslo, Norway). Following microtitre-assay standardization and pilot testing of the drugs (results not presented), the following assay procedure was established. Bacitracin was screened over the range of 20.0-0.625 mg/ml by doubling dilution. 30 mg/ml bacitracin was also examined. […] The remaining wells were run as controls. An initial stock solution of 75 mg/ml bacitracin was prepared in starch-free Robinson medium (SFRM) . Subsequent to loading the first set of wells, the stock was diluted with SFRM to 50 mg/ml, which was used to prepare the remaining concentrations. […] 100 μl volumes of both drugs were then double-diluted in SFRM to provide 2.5X concentrates of the required final concentrations in the microtitre plates. 50 μl of a 25 mg% starch (BDH) solution (in SFRM) was then added to each well. 16-18 hours before the end of the required 48-hour culture period, the amoeba isolates were passaged to fresh tubes containing starch-free Robinson medium. At the end of the culture period, the amoebae were harvested in a small volume of medium and resuspended in at least 20 volumes SFRM. The suspensions were centrifuged at 1000 rpm for 5 minutes prior to re-suspension in fresh medium and counted in a modified Neubauer chamber. Amoebae were centrifuged as before and the pellet resuspended to a concentration of 2.5×10^4 /ml SFRM. 100 μl aliquots were then pipetted into respective wells to provide duplicate cultures of each isolate for each concentration assayed. The plates were then placed in an anaerobic chamber (HP11, Oxoid) at 37° C. for 24 hours. While this procedure provided sufficient starch for the amoebae, the concentration was such that at 24 hours the plates were easily read and quantitified by direct observation using an inverted microscope. Viability was assessed by the addition of Trypan blue to a final concentration of 0.1%.
Readings from each of the studies were collected and stored until all three experiments were completed in order to reduce any bias in subsequent readings. Minimun inhibitory and minimum lethal concentrations were given in mg/ml. […]

[1] = xenic isolate 70k, Experiment 1
[2] = xenic isolate 70k, Experiment 2
[3] = xenic isolate 70k, Experiment 3
[4] = xenic isolate 116k, Experiment 1
[5] = xenic isolate 116k, Experiment 2
[6] = xenic isolate 116k, Experiment 3
[7] = xenic isolate 418, Experiment 1
[8] = xenic isolate 418, Experiment 2
[9] = xenic isolate 418, Experiment 3
[10] = xenic isolate 1246, Experiment 1
[11] = xenic isolate 1246, Experiment 2
[12] = xenic isolate 1246, Experiment 3
[13] = xenic isolate AiDO, Experiment 1
[14] = xenic isolate AiDO, Experiment 2
[15] = xenic isolate AiDO, Experiment 3
[16] = xenic isolate BiLO, Experiment 1
[17] = xenic isolate BiLO, Experiment 3
[18] = xenic isolate DOGO, Experiment 1
[19] = xenic isolate DOGO, Experiment 2
[20] = xenic isolate DOGO, Experiment 3
[21] = xenic isolate OMAk, Experiment 1
[22] = xenic isolate OMAk, Experiment 3
[23] = xenic isolate Sh2, Experiment 2
[24] = xenic isolate Sh2, Experiment 3
[25] = xenic isolate T2k, Experiment 1
[26] = xenic isolate T2k, Experiment 2
[27] = xenic isolate T2k, Experiment 3
[28] = xenic isolate URU1, Experiment 1
[29] = xenic isolate URU1, Experiment 2
[30] = xenic isolate URU1, Experiment 3
[31] = xenic isolate URU19, Experiment 1

## CC[C@H](C)[C@H](N)C1=N[C@H](C(=O)N[C@@H](CC(C)C)C(=O)N[C@H](CCC(=O)O)C(=O)N[C@H](C(=O)N[C@H]2CCCCNC(=O)[C@H](CC(N)=O)NC(=O)[C@@H](CC(=O)O)NC(=O)[C@H](Cc3cnc[nH]3)NC(=O)[C@@H](Cc3ccccc3)NC(=O)[C@H]([C@@H](C)CC)NC(=O)[C@@H](CCCN)NC2=O)[C@@H](C)CC)CS1 [Bacitracin, reference compound] ({Ileψ(thiazoline)Cys}-L[dE]IK[dOrn]I[dF]H[dD]N; lactam 4-C)
Span over all xenic isolates and studies
  MICs: 0.63 to 10.0 mg/mL
Xenic Isolate 1, single study over a narrower range of drug concentration (Table 4)
  Minimum Lethal Concentration (MLC): 21 mg/mL
Xenic Isolate C1, single study over a narrower range of drug concentration (Table 4)
  Minimum Lethal Concentration (MLC): 24 mg/mL
Xenic isolate 1, Experiment 1
  Minimum Inhibitory Concentration (MIC): 5.0 mg/mL
  Minimum Lethal Concentration (MLC): 30.0 mg/mL
Xenic isolate 1, Experiment 2
  Minimum Inhibitory Concentration (MIC): 10.0 mg/mL
  Minimum Lethal Concentration (MLC): 30.0 mg/mL
Xenic isolate 1, Experiment 3
  Minimum Inhibitory Concentration (MIC): 5.0 mg/mL
  Minimum Lethal Concentration (MLC): 30.0 mg/mL
[1]
  Minimum Inhibitory Concentration (MIC): 5.0 mg/mL
  Minimum Lethal Concentration (MLC): 30.0 mg/mL
[2]
  Minimum Inhibitory Concentration (MIC): 5.0 mg/mL
  Minimum Lethal Concentration (MLC): 20.0 mg/mL
[3]
  Minimum Inhibitory Concentration (MIC): 10.0 mg/mL
  Minimum Lethal Concentration (MLC): 30.0 mg/mL
[4]
  Minimum Inhibitory Concentration (MIC): 10.0 mg/mL
  Minimum Lethal Concentration (MLC): 30.0 mg/mL
[5]
  Minimum Inhibitory Concentration (MIC): 1.25 mg/mL
  Minimum Lethal Concentration (MLC): 30.0 mg/mL
[6]
  Minimum Inhibitory Concentration (MIC): 1.25 mg/mL
  Minimum Lethal Concentration (MLC): 30.0 mg/mL
[7]
  Minimum Inhibitory Concentration (MIC): 5.0 mg/mL
  Minimum Lethal Concentration (MLC): 30.0 mg/mL
[8]
  Minimum Inhibitory Concentration (MIC): 0.63 mg/mL
  Minimum Lethal Concentration (MLC): 20.0 mg/mL
[9]
  Minimum Inhibitory Concentration (MIC): 0.63 mg/mL
  Minimum Lethal Concentration (MLC): 20.0 mg/mL
[10]
  Minimum Inhibitory Concentration (MIC): 2.5 mg/mL
  Minimum Lethal Concentration (MLC): 30.0 mg/mL
[11]
  Minimum Inhibitory Concentration (MIC): 10.0 mg/mL
  Minimum Lethal Concentration (MLC): 20.0 mg/mL
[12]
  Minimum Inhibitory Concentration (MIC): 0.63 mg/mL
  Minimum Lethal Concentration (MLC): 20.0 mg/mL
[13]
  Minimum Inhibitory Concentration (MIC): 10.0 mg/mL
  Minimum Lethal Concentration (MLC): 30.0 mg/mL
[14]
  Minimum Inhibitory Concentration (MIC): 2.5 mg/mL
  Minimum Lethal Concentration (MLC): 30.0 mg/mL
[15]
  Minimum Inhibitory Concentration (MIC): 2.5 mg/mL
  Minimum Lethal Concentration (MLC): 30.0 mg/mL
[16]
  Minimum Inhibitory Concentration (MIC): 5.0 mg/mL
  Minimum Lethal Concentration (MLC): 30.0 mg/mL
[17]
  Minimum Inhibitory Concentration (MIC): 1.25 mg/mL
  Minimum Lethal Concentration (MLC): 20.0 mg/mL
Xenic isolate C1, Experiment 1
  Minimum Inhibitory Concentration (MIC): 10.0 mg/mL
  Minimum Lethal Concentration (MLC): 30.0 mg/mL
Xenic isolate C1, Experiment 2
  Minimum Inhibitory Concentration (MIC): 5.0 mg/mL
  Minimum Lethal Concentration (MLC): 20.0 mg/mL
Xenic isolate C1, Experiment 3
  Minimum Inhibitory Concentration (MIC): 1.25 mg/mL
  Minimum Lethal Concentration (MLC): 20.0 mg/mL
Xenic isolate C2, Experiment 1
  Minimum Inhibitory Concentration (MIC): 2.5 mg/mL
  Minimum Lethal Concentration (MLC): 30.0 mg/mL
Xenic isolate C2, Experiment 2
  Minimum Inhibitory Concentration (MIC): 5.0 mg/mL
  Minimum Lethal Concentration (MLC): 20.0 mg/mL
Xenic isolate C2, Experiment 3
  Minimum Inhibitory Concentration (MIC): 2.5 mg/mL
  Minimum Lethal Concentration (MLC): 30.0 mg/mL
Xenic isolate DA, Experiment 1
  Minimum Inhibitory Concentration (MIC): 2.5 mg/mL
  Minimum Lethal Concentration (MLC): 30.0 mg/mL
Xenic isolate DA, Experiment 2
  Minimum Inhibitory Concentration (MIC): 5.0 mg/mL
  Minimum Lethal Concentration (MLC): 30.0 mg/mL
Xenic isolate DA, Experiment 3
  Minimum Inhibitory Concentration (MIC): 0.63 mg/mL
  Minimum Lethal Concentration (MLC): 20.0 mg/mL
[18]
  Minimum Inhibitory Concentration (MIC): 2.5 mg/mL
  Minimum Lethal Concentration (MLC): 30.0 mg/mL
[19]
  Minimum Inhibitory Concentration (MIC): 2.5 mg/mL
  Minimum Lethal Concentration (MLC): 20.0 mg/mL
[20]
  Minimum Inhibitory Concentration (MIC): 0.63 mg/mL
  Minimum Lethal Concentration (MLC): 10.0 mg/mL
Xenic isolate GS, Experiment 1
  Minimum Inhibitory Concentration (MIC): 2.5 mg/mL
  Minimum Lethal Concentration (MLC): 30.0 mg/mL
Xenic isolate GS, Experiment 2
  Minimum Inhibitory Concentration (MIC): 1.25 mg/mL
  Minimum Lethal Concentration (MLC): 20.0 mg/mL
Xenic isolate GS, Experiment 3
  Minimum Inhibitory Concentration (MIC): 0.63 mg/mL
  Minimum Lethal Concentration (MLC): 30.0 mg/mL
Xenic isolate MS, Experiment 1
  Minimum Inhibitory Concentration (MIC): 5.0 mg/mL
  Minimum Lethal Concentration (MLC): 30.0 mg/mL
Xenic isolate MS, Experiment 2
  Minimum Inhibitory Concentration (MIC): 2.5 mg/mL
  Minimum Lethal Concentration (MLC): 20.0 mg/mL
Xenic isolate MS, Experiment 3
  Minimum Inhibitory Concentration (MIC): 1.25 mg/mL
  Minimum Lethal Concentration (MLC): 20.0 mg/mL
[21]
  Minimum Inhibitory Concentration (MIC): 2.5 mg/mL
  Minimum Lethal Concentration (MLC): 30.0 mg/mL
[22]
  Minimum Inhibitory Concentration (MIC): 1.25 mg/mL
  Minimum Lethal Concentration (MLC): 30.0 mg/mL
Xenic isolate SI, Experiment 1
  Minimum Inhibitory Concentration (MIC): 2.5 mg/mL
  Minimum Lethal Concentration (MLC): 30.0 mg/mL
Xenic isolate SI, Experiment 3
  Minimum Inhibitory Concentration (MIC): 2.5 mg/mL
  Minimum Lethal Concentration (MLC): 20.0 mg/mL
[23]
  Minimum Inhibitory Concentration (MIC): 5.0 mg/mL
  Minimum Lethal Concentration (MLC): 20.0 mg/mL
[24]
  Minimum Inhibitory Concentration (MIC): 2.5 mg/mL
  Minimum Lethal Concentration (MLC): 30.0 mg/mL
[25]
  Minimum Inhibitory Concentration (MIC): 2.5 mg/mL
  Minimum Lethal Concentration (MLC): 30.0 mg/mL
[26]
  Minimum Inhibitory Concentration (MIC): 2.5 mg/mL
  Minimum Lethal Concentration (MLC): 30.0 mg/mL
[27]
  Minimum Inhibitory Concentration (MIC): 0.63 mg/mL
  Minimum Lethal Concentration (MLC): 30.0 mg/mL
Xenic isolate T4, Experiment 1
  Minimum Inhibitory Concentration (MIC): 5.0 mg/mL
  Minimum Lethal Concentration (MLC): 30.0 mg/mL
Xenic isolate T4, Experiment 2
  Minimum Inhibitory Concentration (MIC): 2.5 mg/mL
  Minimum Lethal Concentration (MLC): 30.0 mg/mL
Xenic isolate T4, Experiment 3
  Minimum Inhibitory Concentration (MIC): 0.63 mg/mL
  Minimum Lethal Concentration (MLC): 30.0 mg/mL
Xenic isolate T6, Experiment 1
  Minimum Inhibitory Concentration (MIC): 2.5 mg/mL
  Minimum Lethal Concentration (MLC): 30.0 mg/mL
Xenic isolate T6, Experiment 2
  Minimum Inhibitory Concentration (MIC): 2.5 mg/mL
  Minimum Lethal Concentration (MLC): 20.0 mg/mL
Xenic isolate T6, Experiment 3
  Minimum Inhibitory Concentration (MIC): 2.5 mg/mL
  Minimum Lethal Concentration (MLC): 20.0 mg/mL
[28]
  Minimum Inhibitory Concentration (MIC): 2.5 mg/mL
  Minimum Lethal Concentration (MLC): 30.0 mg/mL
[29]
  Minimum Inhibitory Concentration (MIC): 2.5 mg/mL
  Minimum Lethal Concentration (MLC): 20.0 mg/mL
[30]
  Minimum Inhibitory Concentration (MIC): 1.25 mg/mL
  Minimum Lethal Concentration (MLC): 30.0 mg/mL
[31]
  Minimum Inhibitory Concentration (MIC): 2.5 mg/mL
  Minimum Lethal Concentration (MLC): 30.0 mg/mL
